The text below walks through data of patent US6114537A, “Process for scavenging thiols” (Apotex Inc., priority 1997, dated 2000).

The subject of data set [1] is gastric acid secretion, isolated gastric glands. As to the kind of experiment: In vitro inhibition of gastric acid secretion in isolated mouse gastric glands (14C-aminopyrine accumulation). The data set is classed as cell-based. Conditions: 100 μM. The protocol:
Acid secretion is measured indirectly by the accumulation of the weak base ^14 C-aminopyrine in the isolated murine gastric glands of mouse. The assay is performed in polypropylene eppendorf tubes containing 0.5 mL of resuspended mouse gastric glands. In addition, tubes contain the tested drug, acid secretagogues (e.g. histamine, di-butyryl cyclic AMP (cAMP), carbachol) and ^14 C-aminopyrine. Tubes are incubated for 60 min. at 37° C. and continuously rotated. The reaction is stopped by centrifugation of the gland suspension for five min. at 1500 g. Supernatant is aspirated leaving the pellet containing intact gastric glands. The pellet is washed extensively and digested overnight in 1 mL of Protosol (Amersham). After neutralisation with acetic acid and addition of scintillation fluid, the radioactivity is counted in a beta-counter (Beckman). The amount of radioactivity trapped in the pellet corresponds directly with the amount of acid being secreted. Each experimental point is done in triplicate. In each experiment, energy independent consumption was estimated with 0.1 mM of dinitrophenol and basal acid secretion in the absence of acid stimulants. These values were then subtracted from corresponding results in order to calculate basal or secretagogue stimulated acid secretion. […] Each experiment is repeated a number of times and all results are expressed as a % of the maximum stimulation.

Data set [2] can be described thus: Solubility in water. The data set is classed as physicochemical.
The subject of data set [3] is Gastric Acid Secretions. Nature of the data set: Effects on (meal-stimulated) gastric acid secretion in rats. It counts as in vivo, Sprague-Dawley rats. The procedure:
Effects of compounds of Formula I on Gastric Acid Secretions in Rats
Fasted, adult (140-240 g), male, Sprague-Dawley rats were fasted for 24 h from food, but not water, and then treated by oral gavage with 1 to 1.5 mL total volume of compound of Formula I (300 μmmol/Kg) on different days. Two hours later, rats were anesthetized with a combination of pentobartital and thiopental, the abdomen was opened and the pylorus was ligated, and tracheal, gastric, and peripheral venous canulas were placed. The stomachs were lavaged with 10 mL 0.9% saline every 10 min. for 30 min and the gastric effluent collected in receptacles to determine the basal acid secretion. Acid output was determined in each gastric effluent sample by back-titration to pH 7.0 using 0.02M NaOH. Then, 5 mL of an 8% peptone meal (pH 5.5) was instilled into the stomachs, mixed, and drained after 10 min each time for 2 hours. Acid output was determined in each gastric effluent containing the peptone meal by back-titration to pH 5.5 using 0.02 M NaOH.

Data set [4] has as its system Gastric Acid Secretions. Nature of the data set: Effects on gastric acid secretion in rats, dose-dependent study (histamine-stimulated). Conditions: 3, 30, 300 μmol/kg doses, oral, anesthetized rats; histamine 5 mg/kg i.v. The data set is classed as in vivo, Sprague-Dawley rats. The protocol:
Effects of compounds of Formula I on Gastric Acid Secretions in Rats (Dose-dependent study)
Fasted, adult (140-240 g), male, Sprague-Dawley rats were fasted for 24 h from food, but not water, and then treated by oral gavage with 1 to 1.5 mL total volume of 4 different doses (0.3, 3, 30, and 300 μmol/kg) of each compound on different days. Two hours later, rats were anesthetized with a combination of pentobartital and thiopental, the abdomen was opened and the pylorus was ligated, and tracheal, gastric, and peripheral venous canulas were placed. The stomachs were lavaged with 10 mL 0.9% saline every 10 min. for 30 min and the gastric effluent collected in receptacles. Acid output was determined in each gastric effluent sample by back-titration to pH 7.0 using 0.02M NaOH. Then, 5 mL of an […] meal (pH 5.5) was instilled into the stomachs, mixed, and drained after 10 min each time for 2 hours. Acid output was determined in each gastric effluent sample by back-titration to pH 7.0 using 0.02 M NaOH. After measuring basal acid output for at least 30 minutes, acid output was then measured during a 2 h intravenous infusion of histamine (5 mg/kg).

Data set [5] is described as follows: Acid stability in 6 molar hydrochloric acid. It counts as physicochemical. As to conditions: room temperature. The procedure: Acid stability of 7-methoxy-3-[(4-methoxy-3,5-dimethyl-2-pyridyl)oxomethyl]-1,2,4-thiadiazolo[4,5-a]benzimidazole.
To examine acid stability of the captioned compound, the compound was dissolved in a minimum volume of methanol and the resulting solution was added to a 6 molar solution of hydrochloric acid.

Data set [6] can be described thus: Reaction with phenethyl mercaptan (thiol model for the H+/K+-ATPase). It counts as physicochemical. Conditions: in methanol. From the text: The reactivity of the compounds in the process of the invention can be illustrated by means of their reaction with phenethyl mercaptan. This is generally illustrated in FIG. 1 of the accompanying drawings, with R of the thiol reagent representing a phenethyl group. In addition, based on prior art (Im et al., J. Biol. Chem., 1985, 260, 4591; Sturm et al., J. Org. Chem., 1987, 52, 4573; Lorentzon et al., Biochim., Biophys. Acta, 1985, 817, 25), phenethylmercaptan is useful as a model for the H^+ /K^+ -ATPase to examine the reactivity of compounds towards thiol group(s) of the enzyme. […] The compound of formula XI reacts with an additional mole of phenethyl mercaptan to produce a compound of formula XII which decomposes to give compounds of formula XIII and XIV.
A minimum of two moles of phenethyl mercaptan for 1 mole of substrate is required to effect the ring opening of 1,2,4-thiadiazolo[4,5-a]benzimidazoles to give the compound of formula XII. In general, the ring opening reaction is slow with two moles of phenethyl mercaptan. The reaction rate increases rapidly when a large excess of phenethyl mercaptan (for example, 25 fold) is used. […] This degradation of the trapped thiol intermediate to form the disulfide has also been observed in the chemical model for the H^+ /K^+ -ATPase (Lindberg et al., J. Med. Chem., 1986, 29, 1329). […]

Molecules are shown by their SMILES.

For `CN1CCN(c2nsc3nc4ccccc4n23)CC1.Cl.Cl` [3-(4-methyl-1-piperazinyl)-1,2,4-thiadiazolo [4,5-a]benzimidazole dihydrochloride], in data set [1] (cAMP stimulated), the “inhibition of cAMP stimulated acid secretion” value is on record as “completely inhibited”. Moreover, in data set [1] (histamine stimulated), the “inhibition of histamine stimulated acid secretion” value is reported as “completely inhibited”.
For `COc1ccc2c(c1)nc1snc(C(=O)c3ncc(C)c(OC)c3C)n12` [7-methoxy-3-[(4-methoxy-3,5-dimethyl-2-pyridyl)oxomethyl]-1,2,4-thiadiazolo[4,5-a]benzimidazole], the solubility in water entry in data set [2] is recorded as “limited solubility in water”. In data set [3] (300 μmmol/Kg, rats, oral), the “inhibition of meal-stimulated acid secretion” value was “significant (p<0.05) inhibition”. In addition, in data set [3] (after 1 h, oral gavage, rats, 300 μmmol/Kg, vehicle 160 numol/30 min), the “level of acid output, peptone stimulated” value is recorded as 20 μmmol/30 min. The “suppression of gastric acid secretion in animal model” value in data set [3] (animal model) was “active in the suppression of gastric acid secretion”. Also, in data set [4], the “inhibition of histamine-stimulated acid secretion” value is listed as “significant (p<0.05) inhibition”. For the same compound, the “recovery after stirring in acid” value in data set [5] (48 hours) is “totally recovered”. Further, the acid stability result in data set [5] was “very stable in acid”.
On to `CN(C)c1nsc2nc3ccccc3n12` [Me2 N, 3-(dimethylamino)-1,2,4-thiadiazolo[4,5-a]benzimidazole], for which the “time to complete reaction with phenethyl mercaptan” value in data set [6] is at most 1 min.
Turning to `COc1nsc2nc3ccccc3n12` [MeO, 3-methoxy-1,2,4-thiadiazolo[4,5-a]benzimidazole], the “time to complete reaction with phenethyl mercaptan” value in data set [6] was at most 1 min.
